Test results taken from patent publication US20210207081A1, “MATURE AIRWAY ORGANOIDS, METHODS OF MAKING AND USES THEREOF” (priority 2018, published 2021).

Tested on: H7N9/Ah virus
Format: cell-based, Influenza A virus A/Anhui/1/2013(H7N9)

`NCCc1ccc(S(=O)(=O)F)cc1` [AEBSF] was tested, and the “replication of H7N9/Ah virus” value was “significantly restricted the active replication of H7N9/Ah virus”.
